Data taken from article PMC6600292, “Potent Anti-Ovarian Cancer with Inhibitor Activities on Both Topoisomerase II and ^V600EBRAF of Synthesized Substituted Estrone Candidates” (Molecules, 2019).
Where two headings read alike, the source gives them in different places.

Key:
SKOV-3 cells = test: MTT cytotoxicity assay against SKOV-3 ovarian cancer cells; assay type: cell-based; conditions: Homo sapiens, read-out: IC50, cytotoxicity against SKOV-3
Protocol: (§1) The cytotoxic activities of the synthesized derivatives against ovarian cancer cell lines (SKOV-3) were evaluated using standard MTT assay. SKOV-3 cells cultivated on DMEM medium supplemented with 10% FBS, […], 1% antibiotic/antimycotic solution and 3.6 g/L NaHCO3 were used. Cells were incubated under standard laboratory conditions. Before testing compounds, cells were trypsinized, centrifuged and prepared as per our developed protocol. MTT assay relies on the enzymatic conversion of the MTT substrate into purple formazan by living cells mitochondrial enzymes. Shortly, 96 well plates were seeded (10,000 cells/100 µL/well), then incubated for 24 h at standard conditions. Afterwards, cells were exposed to different concentrations from prepared compounds and incubated for another 24 h. Thereafter, MTT (10 µL, 5 mg/mL, PBS) were added to each well, and plates were incubated for 4 h. Supernatants were then replaced discarded with 200 µL of DMSO to dissolve the precipitated formazan crystals. Formazan absorbance, proportional to living cell number, was read at 550 nm using a microplate reader. Viability percentages were calculated and the corresponding IC50 values were obtained from the linear regression of the calibration curve. For comparison, doxorubicin (DOX) and resveratrol (RES) were used as positive controls. Furthermore, the effect of the newly synthesized derivatives was tested against normal fibroblast cell line to assess their toxicities.

in vitro = assay type: cell-based
Protocol: as §1

topoisomerase II = test: Topoisomerase II relaxation assay; assay type: biochemical; conditions: topoisomerase II purified from P388 cells, relaxation of pBR-322 DNA; read-out: IC50, topoisomerase II inhibition
Protocol: The inhibitory effects of the synthesized compounds against topoisomerase II were investigated using relaxation assay according to Goyeneche, et al.. Topoisomerase II was purified from P388 cells, where enzyme unit corresponds to the activity required complete relaxation of […] of supercoiled pBR-322 DNA at 30 °C for 1 h. The assay was performed as per protocol and samples were subjected to electrophoresis (0.7% agarose gels, TBE buffer. Ethidium bromide-stained DNA was examined under UV light.

[1] = biological target: T1, V600EBRAF (mutant BRAF kinase) (Homo sapiens, UniProt P15056, V600E); test: In vitro ELISA-based kinase assay, V600EBRAF; assay type: biochemical; conditions: GST-MEK-His substrate
T1 construct: BRAF wild-type and V600E mutant kinase domains were expressed and purified; made in house; host or cells: Sf9 insect cells, baculovirus
T1 sequence (P15056 457-717 V600E limits assumed): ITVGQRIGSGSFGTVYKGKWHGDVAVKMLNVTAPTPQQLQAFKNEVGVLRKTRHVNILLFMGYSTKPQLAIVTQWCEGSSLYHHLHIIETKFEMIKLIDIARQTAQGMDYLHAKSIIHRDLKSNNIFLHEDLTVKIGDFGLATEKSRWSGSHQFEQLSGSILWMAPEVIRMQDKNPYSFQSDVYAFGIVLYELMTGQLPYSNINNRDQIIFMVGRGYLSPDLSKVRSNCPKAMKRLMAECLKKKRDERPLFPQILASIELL
Protocol: BRAF wild-type and V600E mutant kinase domains were expressed and purified according to Nakamura et al. [34]. Shortly, Sf 9 cells infected with BRAF kinase domain containing baculovirus were resuspended, sonicated, and then cleared using ultracentrifugation. Afterwards, the cleared lysate with mixed with equilibrated Talon resin, and the resin then washed with 10 column volumes of wash buffer and then eluted with buffer (25 mM Tris, pH 7.0, 250 mM NaCl, 160 mM imidazole, 10% glycerol). The eluant was then diluted, concentrated using Superdex 200 gel filtration column, purified as previously described and finally stored at –80 °C until use.
The previously prepared GST MEK-His protein was diluted in TTBS buffer (100 μL, 50 μg/mL), and then bound to 96-plate wells coated with glutathione (Pierce Biotechnology). Two DMSO-dilutions of each compound (1 µL) were added to 50 μL (50mM HEPES, pH7.0, 0.7 pmol of BRAF^V600E kinase). Tubes were incubated at ambient temperature for 1 h, then added to GST-MEK-His-plate wells. Afterwards, 50 μL of phosphorylation buffer were added to start kinase reaction (37 °C/30 min/shaking). Reaction was stopped, then substrate was added, and the signal was recorded. […]

[2] = SK-OV-3, SKOV-3 cells, MTT, 24 h exposure

Row | SMILES | IC50 (SKOV-3 cells; SK-OV-3, 24 h) [µM] | melting point [°C] | IC50 at 24 h (in vitro) [µM] | IC50 (topoisomerase II) [µM] | IC50 [1] [µM] | IC50 (SKOV-3 cells; [2]) [µM]
1 | COCC1CC2C3CCc4cc(O)ccc4C3CCC2(C)C1NN (stereo not drawn) [Compound 3a, 16-(α-Methoxy-methane)-17-hydrazino-estra-1(10),2,4-trien-[17,16-c]-3-ol] | 0.00423 ± 0.00012 | 199 to 201 | 1.2 | 0.00345 ± 0.00013 | 0.041 ± 0.0016 | 
2 | COC(C)C1CC2C3CCc4cc(O)ccc4C3CCC2(C)C1NN (stereo not drawn) [Compound 3b, 16-(α-Methoxy-ethane)-17-hydrazino-estra-1(10),2,4-trien[17,16-c]-3-ol] |  | 308 to 310 | 2.45 |  |  | 
3 | CCOCC1CC2C3CCc4cc(O)ccc4C3CCC2(C)C1NN (stereo not drawn) [Compound 3c, 16-(α-Ethoxy-methane)-17-hydrazino-estra-1(10),2,4-trien-[17,16-c]-3-ol] |  | 219 to 221 | 5.67 |  |  | 
4 | CCOC(C)C1CC2C3CCc4cc(O)ccc4C3CCC2(C)C1NN (stereo not drawn) [Compound 3d, 16-(α-Ethoxy-ethane)-17-hydrazino-estra-1(10),2,4-trien-[17,16-c]-3-ol] |  | 223 to 225 | 7.44 |  |  | 
5 | CNNC1C(COC)CC2C3CCc4cc(O)ccc4C3CCC21C (centres unmarked) [Compound 3e] |  | 222 to 224 | 8.11 |  |  | 
6 | CNNC1C(C(C)OC)CC2C3CCc4cc(O)ccc4C3CCC21C (stereo not drawn) [Compound 3f, 16-(α-Methoxy-ethane)-17-[N-methyl-hydrazino]-estra-1(10),2,4-trien-[17,16-c]-3-ol] |  | 310 to 312 | 9.2 |  |  | 
7 | CCOCC1CC2C3CCc4cc(O)ccc4C3CCC2(C)C1NNC (stereo not drawn) [Compound 3g, 16-(α-Ethoxy-methane)-17-[N-methyl-hydrazino]-estra-1(10),2,4-trien-[17,16-c]-3-ol] |  | 286 to 288 | 11.2 |  |  | 
8 | CCOC(C)C1CC2C3CCc4cc(O)ccc4C3CCC2(C)C1NNC (stereo not drawn) [Compound 3h, 16-(α-Ethoxy-ethane)-17-[N-methyl-hydrazino]-estra-1(10),2,4-trien-[17,16-c]-3-ol] |  | 280 to 282 | 16.2 |  |  | 
9 | COCC1CC2C3CCc4cc(O)ccc4C3CCC2(C)C1NNc1ccccc1 (stereo not drawn) [Compound 3i, 16-(α-Methoxy-methane)-17-[N-phenyl-hydrazino]-estra-1(10),2,4-trien-[17,16-c]-3-ol] |  | 312 to 314 | 15.1 |  |  | 
10 | COC(C)C1CC2C3CCc4cc(O)ccc4C3CCC2(C)C1NNc1ccccc1 (stereo not drawn) [Compound 3j, 16-(α-Methoxy-ethane)-17-[N-phenyl-hydrazino]-estra-1(10),2,4-trien-[17,16-c]-3-ol] |  | 229 to 231 | 16.2 |  |  | 
11 | CCOCC1CC2C3CCc4cc(O)ccc4C3CCC2(C)C1NNc1ccccc1 (stereo not drawn) [Compound 3k, 16-(α-Ethoxy-methane)-17-[N-phenyl-hydrazino]-estra-1(10),2,4-trien-[17,16-c]-3-ol] |  | 338 to 340 | 17.8 |  |  | 
12 | CCOC(C)C1CC2C3CCc4cc(O)ccc4C3CCC2(C)C1NNc1ccccc1 (stereo not drawn) [Compound 3l, 16-(α-Ethoxy-ethane)-17-[N-phenyl-hydrazino]-estra-1(10),2,4-trien-[17,16-c]-3-ol] |  | 288 to 300 | 20.2 |  |  | 
13 | CN1CC2CC3C4CCc5cc(O)ccc5C4CCC3(C)C2=N1 (centres unmarked) [Compound 4a, 1`-Methyl-1`H-estra-1(10),2,4-trien-[17,16-c]pyrazoline-3-ol] |  | 117 to 119 | 23.3 |  |  | 
14 | CC1C2CC3C4CCc5cc(O)ccc5C4CCC3(C)C2=NN1C (centres unmarked) [Compound 4b, 1`-Methyl-1`H-5`-methyl-estra-1(10),2,4-trien-[17,16-c]pyrazoline-3-ol] |  | 216 to 218 | 24.6 |  |  | 
15 | CC12CCC3c4ccc(O)cc4CCC3C1CC1CN(c3ccccc3)N=C12 (centres unmarked) [Compound 4c, 1`-Phenyl-1`H-estra-1(10),2,4-trien-[17,16-c]pyrazoline-3-ol] |  | 255 to 257 | 25.6 |  |  | 
16 | CC1C2CC3C4CCc5cc(O)ccc5C4CCC3(C)C2=NN1c1ccccc1 (centres unmarked) [Compound 4d, 1`-Phenyl-1`H-5`-methyl-estra-1(10),2,4-trien-[17,16-c]pyrazoline-3-ol] |  | 214 to 216 | 30.3 | 0.0436 ± 0.00098 |  | 
17 | COc1cccc2c1C(=O)c1c(O)c3c(c(O)c1C2=O)C[C@@](O)(C(=O)CO)C[C@@H]3O[C@H]1C[C@H](N)[C@H](O)[C@H](C)O1 [doxorubicin] |  |  |  |  |  | 0.25
18 | Oc1ccc(/C=C/c2cc(O)cc(O)c2)cc1 [resveratrol] |  |  |  |  |  | 0.055
